Measured values reported in patent US10632127B2, “Targeted notch pathway inhibitors” (Hoffmann-La Roche Inc., priority 2015, dated 2020).
Read-outs that look alike come from different tables or passages of the source.

Columns and labels:
[1] = tested on: EC219 cells; experiment: Extracellular release of the γ-secretase inhibitor from prodrugs by EC219 endothelial cells; type: in vitro ADME, rat; settings: HEK293, 215/F2, HK2 and EC219 cells, 20 μM in PBS, 19 h
Method: FIG. 2A. Extracellular release of amine-SecrI (11a) metabolites for α-Glu- and γ-Glu-secretase inhibitor prodrugs. The prodrugs were added to the cells for 19 h, then the supernatants were harvested and analyzed for SecrI (8), amine-SecrI (11a), the prodrugs 13a, 13b, 15a, 15b and (for 13a, 15a) also the correponding deacetylated metabolites.
Cpd added: 20 μM in PBS, 19 h incubation. SecrI (8) is stable when added to cells for 19 h; free SecrI (8) was never detected from any prodrug.
The preparation and characterization of rat brain-derived EC219 endothelial cells have been described in Juillerat-Jeanneret, L. et al. In Vitro Cell. Dev. Biol. 1992, 28A, 537-543. These cells express high levels of APA and γ-GT activities and can be used for determining kinetics in living cells, and were chosen as APA- and γ-GT-positive representative cell models. EC219 cells were grown in DMEM medium containing 1 g/l glucose, 10% heat-inactivated fetal calf serum (FCS, EuroClone, UK) supplemented with 100 U/mL penicillin and 100 μg/mL streptomycin (P/S) on uncoated cell culture plastic ware. The HEK293 and HK2 human kidney cells are available from the ATCC (American Tissue Culture Collection, Manassas, Va., USA). HEK293 cells were grown on uncoated cell culture plastic ware in Iscove modified Dulbecco medium (IMDM, Life Technologies) containing 10% FCS and P/S. HK2 cells were grown on uncoated cell culture plastic ware in DMEM/F-12 GlutaMAX medium (Gibco) containing 5% FCS, P/S, 1% ITS (1.0 mg/ml bovine insulin, 0.55 mg/ml human transferrin and 0.5 μg/ml sodium selenite, Sigma-Aldrich) and 5 ng/ml hydrocortisone. […] Then 75 μl of supernatant from each well was removed and the luciferase activity was determined by adding 25 μl of Steady-Glo luciferase assay reagent (Promega).
A first screen of the different γ-secretase prodrugs was performed in vitro to determine the cleavage rate of each compound and ex-vivo in mouse kidney tissues. Extracellular release of the γ-secretase inhibitor from prodrugs by human kidney cells (HEK293, HEK293-derived Notch-reporter 215/F2 cells28,39 and HK2 cells) as well as the rat brain-derived EC219 endothelial cells which express very high levels of APA and γ-GT activities were evaluated for liberating active inhibitors SecrI (8) or amine-SecrI (11a) (FIG. 2A).
All samples were analyzed using protein precipitation followed by LC-MS/MS analysis. […] One μL of the supernatant was analyzed by LC/MS. […]

[2] = Pharmacokinetic assessment in C57BL/6 healthy wild-type mice (i.p.); type: in vivo, mouse; settings: C57BL/6 mice; for concentration at 0.5 h / concentration at 4 h / concentration at 7 h: male, mouse, ip
Method: For PK evaluation, the compounds were administered i.p to male C57BL/6 mice in suspension (gelatine/saline 7.5%/0.62% in water) using an administration volume of 4 mL/kg. Blood samples were collected in tubes containing EDTA, plasma was separated by centrifugation and stored at −80° C. Liver and kidney samples (˜100 mg aliquots) were homogenized in three volumes of water using Precellys tissue homogenization tubes (precellys.com). 25 μL of each tissue homogenate was further diluted with 25 μL blank plasma to produce the final tissue homogenate for extraction. All samples were analyzed using protein precipitation followed by LC-MS/MS analysis. Briefly, 50 μL plasma or final tissue homogenate were mixed with 50 μL 0.5M HClO4/acetonitrile 9/1 (containing 200 ng/mL internal standard bosentan). Samples were stirred and 300 μL water was added followed by centrifugation at 5600 rpm (4° C., 10 min). 10 μL supernatant was analyzed by LC/MS analysis. Calibration standards in plasma were prepared the same way. The LC column and conditions used were: Phenomenex, Polar RP, 4 μm, 50×2.1 mm at 0.4 mL/min flow rate with a 3 min gradient from 95% solvent A to 95% solvent B (Solvent A: Water/ACN/HCOOH, 90:10:0.1+10 mM NH4 formate; Solvent B: Water/ACN/HCOOH, 10:90:0.1+10 mM NH4 formate). Mass spectrometric conditions were: Thermo TSQ Vantage with positive heated electrospray ionization in MS/MS mode. Compounds mass transitions monitored were m/z 320.7 to 119.9. PK parameters for all studies were calculated using Phoenix WinNonlin Software.
We next determined the stability, tissue distribution and cleavage rate in plasma, liver and kidney of the designed prodrugs in non-diseased mice. In the in vivo screen, the kinetics and distribution of γ-secretase inhibitor prodrugs Ac-γ-Glu-SecrI (13a), Ac-α-Glu-SecrI (15a) and H-α-Glu-SecrI (15b) were compared with the active γ-secretase inhibitor amine-SecrI (11a). After i.p administration (10 mg/kg) in C57BL/6 mice, the disappearance of the prodrugs and the formation of the active amine-SecrI (11a) were compared in plasma, liver and kidney (Table 5). First, we determined the pharmacokinetics (PK) behavior of amine-SecrI (11a) following i.p. administration (Table 5A). […] Liver and kidney exposure were much higher, with approximately 4.5-fold higher exposure in liver compared to kidney. […] The selectivity towards kidney appeared to decrease over time, probably due to fast clearance and re-equilibration of the amine-SecrI (11a). However, the high selectivity at earlier time-points assured that the total exposure over time was much higher in the kidney compared to the liver.

[3] = kidney, 10 mg/kg i.p., 0.5 h, read-out: Kidney concentration of administered compound
[4] = kidney, 10 mg/kg i.p., 4 h, read-out: Kidney concentration of administered compound
[5] = kidney, 10 mg/kg i.p., 7 h, read-out: Kidney concentration of administered compound
[6] = liver, 10 mg/kg i.p., 0.5 h, read-out: Liver concentration of administered compound
[7] = liver, 10 mg/kg i.p., 4 h, read-out: Liver concentration of administered compound
[8] = liver, 10 mg/kg i.p., 7 h, read-out: Liver concentration of administered compound
[9] = plasma, 10 mg/kg i.p., 0.5 h, read-out: Plasma concentration of administered compound
[10] = plasma, 10 mg/kg i.p., 7 h, read-out: Plasma concentration of administered compound

| Structure (SMILES) | plasma exposure, in words ([2]; 10 mg/kg i.p.) | concentration at 0.5 h [2, 3] [ng/g] | concentration at 4 h [2, 4] [ng/g] | concentration at 7 h [2, 5] [ng/g] | concentration at 0.5 h [2, 6] [ng/g] | concentration at 4 h [2, 7] [ng/g] | concentration at 7 h [2, 8] [ng/g] | concentration at 0.5 h [2, 9] [ng/mL] | concentration at 7 h [2, 10] [ng/mL] | conversion to amine-SecrI (11a), in words ([2]; 10 mg/kg i.p.) | Plasma concentration of administered compound ([2]; 10 mg/kg i.p., 4 h) | other results |
| --- | --- | --- | --- | --- | --- | --- | --- | --- | --- | --- | --- | --- |
| C[C@H]1Oc2ccc(F)cc2N(CCO)C(=O)[C@H]1NC(=O)[C@@](C)(O)C(=O)NCC(F)(F)C(F)(F)F [Compound 8, N-[(6R,7S)-2-Fluoro-9-(2-hydroxy-ethyl)-6-methyl-8-oxo-6,7,8,9-tetrahydro-5-oxa-9-aza-benzocyclohepten-7-yl]-2-(S)-hydroxy-2-methyl-N′-(2,2,3,3,3-pentafluoro-propyl)-malonamide] | – | – | – | – | – | – | – | – | – | – | – | stability when added to cells [1]: stable |
| C[C@H]1Oc2ccc(F)cc2N(CCOC(=O)NCCN)C(=O)[C@H]1NC(=O)[C@@](C)(O)C(=O)NCC(F)(F)C(F)(F)F.Cl [Compound 11a, 2-((2R,3S)-7-Fluoro-3-((S)-2-hydroxy-2-methyl-3-oxo-3-(2,2,3,3,3-pentafluoropropylamino)propanamido)-2-methyl-4-oxo-3,4-dihydrobenzo[b][1,4]oxazepin-5(2H)-yl)ethyl 2-aminoethylcarbamate hydrochloride] | very low plasma exposure | 15500 | 1200 | 420 | 70000 | 3000 | 1200 | 97.8 | 2.08 | – | – | hydrolysis of the linker in 11a to the free antagonist 8 ([2]; 10 mg/kg i.p.): never observed significant amounts; exposure in liver compared to kidney ([2]; 11a 10 mg/kg i.p.): approximately 4.5 fold; 11a in kidney, relative amount (arbitrarily set to 100%) ([2]; 11a 10 mg/kg i.p., 0.5 h): (100) %; 11a in liver, relative amount (11a in kidney = 100%) ([2]; 11a 10 mg/kg i.p., 0.5 h): (450) %; 11a in kidney, relative amount (arbitrarily set to 100%) ([2]; 11a 10 mg/kg i.p., 4 h): (100) %; 11a in liver, relative amount (11a in kidney = 100%) ([2]; 11a 10 mg/kg i.p., 4 h): (250) %; 11a in kidney, relative amount (arbitrarily set to 100%) ([2]; 11a 10 mg/kg i.p., 7 h): (100) %; 11a in liver, relative amount (11a in kidney = 100%) ([2]; 11a 10 mg/kg i.p., 7 h): (290) %; formed 11a in plasma at all time-points ([2]; after 13a 10 mg/kg i.p.): below the limit of quantitation; Plasma concentration of formed 11a ([2]; after 13a 10 mg/kg i.p., 0.5 h): BQL; Plasma concentration of formed 11a ([2]; after 13a 10 mg/kg i.p., 4 h): BQL; Plasma concentration of formed 11a ([2]; after 13a 10 mg/kg i.p., 7 h): BQL; Plasma concentration of formed 11a ([2]; after 15b 10 mg/kg i.p., 7 h): BQL; concentration at 4 h ([2]; plasma, 10 mg/kg i.p., 4 h, read-out: Plasma concentration of administered compound): 1.32 ng/mL |
| CC(=O)N[C@@H](CCC(=O)NCCNC(=O)OCCN1C(=O)[C@@H](NC(=O)[C@@](C)(O)C(=O)NCC(F)(F)C(F)(F)F)[C@@H](C)Oc2ccc(F)cc21)C(=O)O [Compound 13a, (S)-2-acetamido-5-(2-((2-((2R,3S)-7-fluoro-3-((S)-2-hydroxy-2-methyl-3-oxo-3-(2,2,3,3,3-pentafluoropropylamino)propanamido)-2-methyl-4-oxo-3,4-dihydrobenzo[b][1,4]oxazepin-5(2H)-yl)ethoxy)carbonylamino)ethylamino)-5-oxopentanoic acid] | low plasma exposure | 1030 | 16.6 | – | 3570 | 625 | 22.3 | 4.88 | – | high conversion | BQL | hydrolysis by γ-GT [1]: not hydrolyzed by γ-GT; Kidney concentration of administered compound ([2]; 10 mg/kg i.p., 7 h): BQL; Plasma concentration of administered compound ([2]; 10 mg/kg i.p., 7 h): BQL |
| CC(=O)N[C@@H](CCC(=O)O)C(=O)NCCNC(=O)OCCN1C(=O)[C@@H](NC(=O)[C@@](C)(O)C(=O)NCC(F)(F)C(F)(F)F)[C@@H](C)Oc2ccc(F)cc21 [Compound 15a, (S)-4-acetamido-5-(2-((2-((2R,3S)-7-fluoro-3-((S)-2-hydroxy-2-methyl-3-oxo-3-(2,2,3,3,3-pentafluoropropylamino)propanamido)-2-methyl-4-oxo-3,4-dihydrobenzo[b][1,4]oxazepin-5(2H)-yl)ethoxy)carbonylamino)ethylamino)-5-oxopentanoic acid] | – | 7540 | 81 | 33.8 | 7220 | 2850 | 737 | 573 | 6.29 | much lower extent | BQL | substrate for APA [1]: not a substrate for this enzyme |
